{"source": "patent US20180193336A1", "about": "“SPRAY DRY FORMULATIONS” (Pulmokine, Inc., priority 2013, published 2018)", "key": {"rat MCT model [1]": {"tested_on": "rat MCT model", "test": "Efficacy in rat MCT model, PK10453 dose response", "assay_type": "in vivo", "protocol": "Male Sprague Dawley rats received MCT 60 mg/kg IPMCT, and after 3 weeks, PK10453 (Structure 2) or vehicle control were administered by inhalation. Four groups were studied: vehicle control (4 min exposure) and three treatment groups of PK10453 (Structure 2) with exposure times 2 min (D2), 4 min (D4), or 8 min (D8) three times a day. These regimens were administered for two weeks. The vehicle consisted of aerosolized 1M tosylic acid neutralized with ammonia vapor as described above. The pH of a solution prepared by dissolving captured aerosol particles in water was measured for every dose and was consistently in the range of 5.5-6.0. At the end of the study, the RV systolic pressure was measured, and the heart chambers dissected and weighed."}, "rat MCT model [2]": {"tested_on": "rat MCT model", "quoted_text": "At the end of the study RVSP pressure was measured; lung and heart fixed in formalin. For measurement of RVSP animals were sedated with isoflurane, intubated via a tracheostomy, and ventilated with a TOPOVENT pressure regulated ventilator (peak inspiratory pressure 18 cm H20, PEEP 5 cm). After sternotomy, a Scisense high fidelity catheter inserted via the RV apex.\nAt the end of the study, the heart and lungs were removed from ventilated animals under general anesthesia. Heparinized saline was infused under pressure through the main pulmonary artery. […] The heart was removed, and the RV free wall, interventricular septum and LV free wall dissected and weighed. Buffered formalin (10%) was infused under pressure both through the pulmonary artery and the trachea. Morphometric analysis was performed on H&E stained formalin fixed tissue sectioned at 8 μm. The media area and lumen area of pulmonary arterioles were measured with Image J software by a technician blinded to treatment group. Measurements were made on 20 pulmonary arterioles per section. The ratio of the lumen area to the total media area was determined. This ratio normalizes the variation in total pulmonary arteriole area. […] Briefly, pre-capillary arterioles were assigned grade 0 for no evidence of neointimal lesions, grade 1 for less than 50% luminal occlusion, and grade 2 for greater than 50% occlusion."}, "[3]": {"tested_on": "PDGFBB stimulated phosphorylation of ERK1 and ERK2", "test": "PDGFBB stimulated phosphorylation of ERK1 and ERK2 in human fetal lung fibroblasts", "assay_type": "cell-based", "source_text": "Data shown are mean±SEM. […] PK10453=structure 2; PK10571=structure 2a. Platelet derived growth factor receptor alpha=PDGFR-alpha=PDGFR-α=PDGF receptor alpha=PDGF alpha receptor. Platelet derived growth factor receptor beta=PDGFR-beta=PDGFRβ=PDGF receptor beta=PDGF beta receptor."}, "[4]": {"test": "Fluorescent imaging of lung distribution after inhalation with IR780 tracer", "assay_type": "in vivo, rat", "conditions": "2 min inhalation with IR780 tracer", "quoted_text": "A near IR fluorescent tracer, IR-780, was added to the drug solution in the nebulizer to ensure dried aerosol particles contained both the drug and IR tracer. After a two min exposure, animals were placed under general anesthesia underwent intubation via tracheostomy, and the lungs were excised. OCT/PBS was infused via the pulmonary artery, the lung insufflated with air, and the lungs frozen in the vapor phase of liquid nitrogen. Serial approximate 2 mm sections of lung were imaged on a Licor Odyssey Imager."}, "[5]": {"tested_on": "PDGFBB stimulated AKT phosphorylation", "test": "In cell Western, PDGFBB stimulated AKT phosphorylation in human fetal lung fibroblasts", "assay_type": "cell-based", "conditions": "for IC50: Fibroblast", "protocol": "(§1) HLFs were maintained in subculture at no more than 6 passages in DMEM with 5% FBS and 4 mM Glutamax at 37° C., 5% CO2. HLFs were plated and grown to 70-80% confluence in 96 well plates then serum-starved for 48 hours. […] Antibodies were detected using IRDye 680LT goat anti-mouse IgG and IRDye 800 W goat α-rabbit IgG conjugated antibodies. After washing, the signal was quantified using an Odyssey Infrared Imaging System (LI-COR). Phosphoprotein signal (800 nm) was normalized to total protein signal (700 nm) acquired from each well and experimental duplicates on same plate were averaged and reported."}, "[6]": {"tested_on": "phosphorylated AKT, STAT3 and ERK1/2 in lung extracts", "test": "NanoPro immunoassay of lung extracts, rat MCT+PN model", "assay_type": "in vivo", "protocol": "Relative differences in phosphorylated ERK1/2 and STAT isoforms were measured with a anoProlOO® immunoassay system (Protein Simple/Cell Biosciences, CA). See Fan et al., “Nanofluidic proteomic assay for serial analysis of oncoprotein activation in clinical specimens.” Nat Med 15:566-571 (2009)."}, "PDGFRbeta": {"target": "PDGFRbeta (Homo sapiens, UniProt P09619)", "sequence (P09619 600-962 limits assumed)": "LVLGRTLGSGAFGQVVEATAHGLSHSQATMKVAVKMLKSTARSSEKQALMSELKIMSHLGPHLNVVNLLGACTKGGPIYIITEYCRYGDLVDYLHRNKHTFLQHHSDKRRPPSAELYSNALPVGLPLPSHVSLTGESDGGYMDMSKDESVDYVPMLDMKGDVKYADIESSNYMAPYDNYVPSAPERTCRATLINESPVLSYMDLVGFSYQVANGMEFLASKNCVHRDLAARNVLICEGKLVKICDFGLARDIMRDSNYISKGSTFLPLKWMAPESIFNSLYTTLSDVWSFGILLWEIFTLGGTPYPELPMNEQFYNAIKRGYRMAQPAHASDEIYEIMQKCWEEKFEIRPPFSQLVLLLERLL", "conditions": "FIG. 25", "protocol": "A Z-lyte kinase assay was performed to determine the inhibition of PDGFRalpha and PDGFRbeta mediated phosphorylation by PK10453 (Structure 2). Ten point titration curves were modeled to calculate the IC50 (Invitrogen Select Screen®)."}, "[7]": {"test": "Systemic blood pressure study in ambulatory MCT treated rats", "assay_type": "in vivo, rat", "protocol": "The effect of PK10453 (Structure 2) on systemic BP was studied in ambulatory MCT treated rats with DSI PAC40 transmitters implanted in the descending aorta. […] Blood pressure was recorded before each morning dose."}, "[8]": {"tested_on": "PDGFAA stimulated AKT phosphorylation", "test": "In cell Western, PDGFAA stimulated AKT phosphorylation in human fetal lung fibroblasts", "assay_type": "cell-based", "conditions": "for IC50: Fibroblast", "protocol": "as §1"}, "[9]": {"conditions": "8 min inhalation three times a day, two weeks"}}, "note": "Like-named read-outs stand apart in the source and are kept apart here.", "data": [{"smiles": "COc1cc(-c2cncc(N[C@@H](C)c3cccc(NC(=O)c4cncc(C)c4)c3)n2)ccc1O", "note": "[PK10453, (S)—N-(3-(1-((6-(4-hydroxy-β-methoxyphenyl)pyrazin-2yl)amino)ethyl)phenyl)-5-methylnicotinamide]", "values": [{"measurement": "degree of RV hypertrophy, ratio (RV+IVS)/LV weight", "setting": "rat MCT model [1]; rat MCT", "value": "significant reduction"}, {"measurement": "decrease of RV systolic pressure", "setting": "rat MCT model [1]; rat MCT model, discussion", "value": 50, "unit": "%"}, {"measurement": "reduction in RVSP compared to the vehicle treated group", "setting": "rat MCT model [1]; rat MCT, D4", "value": 44, "unit": "%"}, {"measurement": "reduction in RVSP compared to the vehicle treated group", "setting": "rat MCT model [1]; rat MCT, D8", "value": 54, "unit": "%"}, {"measurement": "end diastolic volume, ejection fraction, cardiac output, stroke work, difference between groups", "setting": "rat MCT model [2]", "value": "no significant differences"}, {"measurement": "Lumen/Media ratio", "setting": "rat MCT model [2]; 8 min exposures", "value": "0.94±0.08"}, {"measurement": "End systolic volume", "setting": "rat MCT model [2]; [9]", "value": 99.5, "unit": "µL"}, {"measurement": "RV end systolic pressure", "setting": "rat MCT model [2]; [9]", "value": "36.3±2.6", "unit": "mm Hg"}, {"measurement": "decrease of PDGF BB stimulated ppERK1 and ppERK2 relative to imatinib", "setting": "[3]; 1 uM and 10 uM", "value": "more effective"}, {"measurement": "decrease of PDGFBB stimulated ppERK1 formation", "setting": "[3]; 1 uM, PDGF BB 10 ng/ml", "value": "effective"}, {"measurement": "ratio diphosphorylated ERK2 to total ERK2 (ppERK2/ERK2)", "setting": "[3]; PDGFAA or PDGFBB stimulation (10 ng/ml), 1 uM and 10 uM", "value": "significantly decreased"}, {"measurement": "ratio diphosphorylated ERK1 to total ERK1 (ppERK1/ERK1)", "setting": "[3]; PDGFAA or PDGFBB stimulation, 1 μM and 10 μM", "value": "significantly decreased"}, {"measurement": "spatial distribution in lung after inhalation", "setting": "[4]", "value": "well distributed throughout the lungs"}, {"measurement": "IC50", "setting": "[5]; human fetal lung fibroblasts, 10 ng/ml PDGFBB, read-out: IC50 for PDGFBB stimulated AKT phosphorylation at Ser473", "value": 130, "unit": "nM"}, {"measurement": "IC50", "setting": "[5]; human fetal lung fibroblasts, 10 ng/ml PDGFBB, read-out: IC50 for PDGFBB stimulated AKT phosphorylation at Thr308", "value": 430, "unit": "nM"}, {"measurement": "IC50", "setting": "[5]; human fetal lung fibroblasts, legend of FIG. 2 PANEL C, read-out: IC50 for PDGFBB stimulation of pAKT(Ser473)", "value": 130, "unit": "nM"}, {"measurement": "IC50", "setting": "[5]; Homo sapiens, FIG. 26, each concentration in duplicate, read-out: IC50, PDGF BB stimulated pAKT in human lung fibroblasts", "value": 150, "unit": "nM"}, {"measurement": "IC50 for inhibiting PDGFBB stimulated AKT phosphorylation relative to imatinib", "setting": "[5]; fetal human lung fibroblasts, FIG. 18", "value": "lower IC50 concentration compared to imatinib"}, {"measurement": "pAKT(Ser473)/AKT ratio in lung extracts", "setting": "[6]", "value": "significant reduction"}, {"measurement": "pERK1/ERK1 in lung homogenates", "setting": "[6]; D4 and D8 compared to vehicle", "value": "significant reductions"}, {"measurement": "pSTAT3/STAT3 ratio in lung", "setting": "[6]; D4 and D8 compared to vehicle", "value": "significant reduction"}, {"measurement": "ppERK1/ERK1 in lung homogenates", "setting": "[6]; D4 and D8 compared to vehicle", "value": "significant reductions"}, {"measurement": "pAKT(Thr308)/AKT ratio in lung extracts", "setting": "[6]; V, D4, D8", "value": "not significantly different"}, {"measurement": "potency against PDGFR beta kinase domain relative to imatinib", "setting": "PDGFRbeta", "value": "more potent than imatinib"}, {"measurement": "systolic BP", "setting": "[7]; MCT rats, day seven of treatment, 4 min exposure 3×/d", "value": "131±10", "unit": "mmHg"}, {"measurement": "effect on systemic BP", "setting": "[7]; rat MCT model", "value": "did not have an adverse effect"}, {"measurement": "IC50 for PDGFAA stimulated phosphorylation of AKT, PK10453 compared with imatinib", "setting": "[8]", "value": "not significantly different"}, {"measurement": "IC50", "setting": "[8]; legend of FIG. 2 PANEL A, read-out: IC50 for PDGFAA stimulation of pAKT(S473)", "value": "300 to 600", "unit": "nM"}, {"measurement": "IC50", "setting": "[8]; legend of FIG. 2 PANEL B, read-out: IC50 for PDGFAA stimulation of pAKT(T308)", "value": "300 to 600", "unit": "nM"}]}]}
